{
  "source": "ChEMBL document CHEMBL2074087",
  "about": "“Inhibition of the P-glycoprotein- and multidrug resistance protein-mediated efflux of anthracyclines and calceinacetoxymethyl ester by PAK-104P” (Eur J Pharmacol, 2000)",
  "biological_target": "ATP-dependent translocase ABCB1 (Homo sapiens, UniProt P08183)",
  "sequence (P08183 whole entry)": "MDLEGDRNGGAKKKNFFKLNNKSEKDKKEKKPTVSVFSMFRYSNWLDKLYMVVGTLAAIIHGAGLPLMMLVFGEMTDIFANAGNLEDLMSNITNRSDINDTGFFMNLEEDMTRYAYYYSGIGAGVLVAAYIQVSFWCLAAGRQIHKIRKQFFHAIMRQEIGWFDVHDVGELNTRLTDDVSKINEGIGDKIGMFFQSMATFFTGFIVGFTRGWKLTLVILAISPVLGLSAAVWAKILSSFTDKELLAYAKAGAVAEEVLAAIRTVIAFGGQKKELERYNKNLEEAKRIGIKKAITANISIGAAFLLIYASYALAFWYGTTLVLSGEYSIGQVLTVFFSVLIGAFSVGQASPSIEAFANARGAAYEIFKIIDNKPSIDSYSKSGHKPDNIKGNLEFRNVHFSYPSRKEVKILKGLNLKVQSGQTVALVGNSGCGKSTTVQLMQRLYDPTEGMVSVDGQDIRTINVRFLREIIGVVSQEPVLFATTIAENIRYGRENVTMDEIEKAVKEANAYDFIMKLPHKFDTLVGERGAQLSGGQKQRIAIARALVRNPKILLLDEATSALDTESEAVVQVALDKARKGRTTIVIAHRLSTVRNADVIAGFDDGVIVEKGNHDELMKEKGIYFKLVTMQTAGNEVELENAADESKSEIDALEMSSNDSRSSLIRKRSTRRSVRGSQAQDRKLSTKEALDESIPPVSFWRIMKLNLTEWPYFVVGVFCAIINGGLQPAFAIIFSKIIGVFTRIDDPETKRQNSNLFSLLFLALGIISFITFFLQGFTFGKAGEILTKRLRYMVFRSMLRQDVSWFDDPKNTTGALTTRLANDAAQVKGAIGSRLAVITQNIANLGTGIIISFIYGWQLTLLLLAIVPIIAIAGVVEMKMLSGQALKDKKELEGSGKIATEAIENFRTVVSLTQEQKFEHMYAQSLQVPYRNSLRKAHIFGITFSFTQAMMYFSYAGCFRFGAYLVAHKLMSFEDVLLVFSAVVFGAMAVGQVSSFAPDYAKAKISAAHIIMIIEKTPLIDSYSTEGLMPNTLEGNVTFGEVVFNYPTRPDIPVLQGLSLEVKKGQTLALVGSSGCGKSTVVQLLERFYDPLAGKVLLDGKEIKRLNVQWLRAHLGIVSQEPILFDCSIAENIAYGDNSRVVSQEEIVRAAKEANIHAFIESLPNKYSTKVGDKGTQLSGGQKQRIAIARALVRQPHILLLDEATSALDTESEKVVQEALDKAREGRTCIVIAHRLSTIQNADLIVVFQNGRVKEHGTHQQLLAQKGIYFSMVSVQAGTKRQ",
  "assay": "TP_TRANSPORTER: inhibition of Hydroxydoxorubicin efflux in K562/Adr cells",
  "type": "functional, cell-based",
  "data": [
    {"smiles": "Cc1nc(C)c(P2(=O)O[C@H](C)C[C@@H](C)O2)c(-c2cccc([N+](=O)[O-])c2)c1C(=O)OCCN1CCN(C(c2ccccc2)c2ccccc2)CC1", "note": "(stereo partly specified)", "values": [
      {"measurement": "Ki", "result": 0.21, "unit": "µM"}
    ]}
  ]
}
